Source: patent US10221215B2, “Hydrogen bond surrogate macrocycles as modulators of Ras” (New York University, priority 2011, dated 2019)
Non-standard residues stand in square brackets, D forms with d. Residues, ends and D or L forms follow the SMILES beside them. Aib = CC(C)(N)C(=O)O

Assay: Solubility of peptides and HBS helices
Type: physicochemical
Experimental: Design of Ras/Sos inhibitors was performed starting with the wild-type Sos929-944 α-H sequence. Additional modifications were introduced in order to improve the solubility of the HBS peptides. Charged residues were introduced at positions not involved in Ras binding. Computational alanine scanning was performed on two separate crystal structures (PDB codes: 1NVW and 1BKD) of the Ras/Sos complex to determine other important binding residues in the α-H helix that may be incorporated in the peptide mimetics. Additionally, non-essential β-branched residues (including threonine) in the wild-type α-H sequence were replaced with suitable residues to afford peptides with higher helical content (Table 1), as it was hypothesized that such modifications would improve α-helicity.

Compound	Solubility
CC[C@H](C)[C@H](NC(=O)CNC(=O)[C@H](Cc1ccccc1)NC(=O)[C@H](Cc1ccccc1)NC(C)=O)C(=O)N[C@@H](Cc1ccc(O)cc1)C(=O)N[C@@H](CC(C)C)C(=O)N[C@H](C(=O)N[C@@H](CC(N)=O)C(=O)N[C@H](C(=O)N[C@@H](CC(C)C)C(=O)N[C@@H](CCCCN)C(=O)N[C@H](C(=O)N[C@@H](CCC(=O)O)C(=O)N[C@@H](CCC(=O)O)C(=O)NCC(=O)N[C@@H](CC(N)=O)C(N)=O)[C@@H](C)O)[C@@H](C)CC)[C@@H](C)O [wt (Sos929-944), reference compound]	insoluble
CC(C)C[C@H](NC(=O)CN1CC=CCCC(=O)N[C@@H](Cc2ccccc2)C(=O)N[C@@H](CCC(=O)O)C1=O)C(=O)N[C@@H](CC(C)C)C(=O)N[C@@H](CCCNC(=N)N)C(=O)N[C@@H](CC(C)C)C(=O)N[C@@H](Cc1c[nH]c2ccccc12)C(=O)N[C@@H](CC(C)C)C(=O)N[C@@H](CCCNC(=N)N)C(=O)N[C@@H](CCCCN)C(=O)NC(C)(C)C(=O)N[C@@H](CCC(=O)O)C(=O)N[C@@H](CCC(=O)O)C(=O)NC(C)(C)C(=O)N[C@@H](CC(N)=O)C(N)=O [HBS 10]	soluble
Ac-FEAIYRLELLKAEEAN-NH2 (N-terminus assumed) [Peptide 13]	soluble
CC[C@H](C)[C@H](NC(=O)CNC(=O)[C@H](CCC(=O)O)NC(=O)[C@H](Cc1ccccc1)NC(C)=O)C(=O)N[C@@H](Cc1ccc(O)cc1)C(=O)N[C@@H](CCCNC(=N)N)C(=O)N[C@@H](CC(C)C)C(=O)N[C@@H](CCC(=O)O)C(=O)N[C@@H](CC(C)C)C(=O)N[C@@H](CC(C)C)C(=O)N[C@@H](CCCCN)C(=O)NC(C)(C)C(=O)N[C@@H](CCC(=O)O)C(=O)N[C@@H](CCC(=O)O)C(=O)NC(C)(C)C(=O)N[C@@H](CC(N)=O)C(N)=O [Peptide 11] (Ac-FEGIYRLELLK[Aib]EE[Aib]N-NH2; N-terminus assumed)	soluble
CC(=O)N[C@@H](Cc1ccccc1)C(=O)N[C@@H](CCC(=O)O)C(=O)NCC(=O)N[C@@H](CC(C)C)C(=O)N[C@@H](CC(C)C)C(=O)N[C@@H](CCCNC(=N)N)C(=O)N[C@@H](CC(C)C)C(=O)N[C@@H](Cc1c[nH]c2ccccc12)C(=O)N[C@@H](CC(C)C)C(=O)N[C@@H](CCCNC(=N)N)C(=O)N[C@@H](CCCCN)C(=O)NC(C)(C)C(=O)N[C@@H](CCC(=O)O)C(=O)N[C@@H](CCC(=O)O)C(=O)NC(C)(C)C(=O)N[C@@H](CC(N)=O)C(N)=O [Peptide 10] (Ac-FEGLLRLWLRK[Aib]EE[Aib]N-NH2; N-terminus assumed)	soluble
CC[C@H](C)[C@H](NC(=O)CN1CC=CCCC(=O)N[C@@H](Cc2ccccc2)C(=O)N[C@@H](CCC(=O)O)C1=O)C(=O)N[C@@H](Cc1ccc(O)cc1)C(=O)N[C@@H](CCCNC(=N)N)C(=O)N[C@@H](CC(C)C)C(=O)N[C@@H](CCC(=O)O)C(=O)N[C@@H](CCCCN)C(=O)N[C@@H](CC(C)C)C(=O)N[C@@H](CCCCN)C(=O)N[C@@H](C)C(=O)N[C@@H](CCC(=O)O)C(=O)N[C@@H](CCC(=O)O)C(=O)N[C@@H](C)C(=O)N[C@@H](CC(N)=O)C(=O)N[C@@H](CCCNC(=N)N)C(=O)N[C@@H](CCCNC(=N)N)C(N)=O [HBS 16]	soluble
Ac-FEAIYRLEKLKAEEAN-NH2 (N-terminus assumed) [Peptide 15]	soluble
CC[C@H](C)[C@H](NC(=O)CN1CC=CCCC(=O)N[C@@H](Cc2ccccc2)C(=O)N[C@@H](CCC(=O)O)C1=O)C(=O)N[C@@H](Cc1ccc(O)cc1)C(=O)N[C@@H](CCCNC(=N)N)C(=O)N[C@@H](CC(C)C)C(=O)N[C@@H](CCC(=O)O)C(=O)N[C@@H](CC(C)C)C(=O)N[C@@H](CC(C)C)C(=O)N[C@@H](CCCCN)C(=O)NC(C)(C)C(=O)N[C@@H](CCC(=O)O)C(=O)N[C@@H](CCC(=O)O)C(=O)NC(C)(C)C(=O)N[C@@H](CC(N)=O)C(N)=O [HBS 11]	soluble
Ac-FEGIYRLELLKAEEAN-NH2 (N-terminus assumed) [Peptide 7]	soluble
Ac-FEGLLRLWLRKAEEAN-NH2 (N-terminus assumed) [Peptide 12]	soluble
Ac-FEGIYRTDILR-NH2 (N-terminus assumed) [Peptide 5]	soluble
Ac-AEGIYRTDILRTEEGN-NH2 (N-terminus assumed) [Peptide 3]	partially
CC[C@H](C)[C@H](NC(=O)[C@H](C)N1CC=CCCC(=O)N[C@@H](Cc2ccccc2)C(=O)N[C@@H](CCC(=O)O)C1=O)C(=O)N[C@@H](Cc1ccc(O)cc1)C(=O)N[C@@H](CCCNC(=N)N)C(=O)N[C@@H](CC(C)C)C(=O)N[C@@H](CCC(=O)O)C(=O)N[C@H]1CCCCNC(=O)CC[C@@H](C(=O)N[C@@H](CCC(=O)O)C(=O)N[C@@H](C)C(=O)N[C@@H](CC(N)=O)C(N)=O)NC(=O)[C@H](C)NC(=O)[C@H](CCCCN)NC(=O)[C@H](CC(C)C)NC1=O [HBS 15]	soluble
CC(C)C[C@H](NC(=O)CN1CC=CCCC(=O)N[C@@H](Cc2ccccc2)C(=O)N[C@@H](CCC(=O)O)C1=O)C(=O)N[C@@H](CC(C)C)C(=O)N[C@@H](CCCNC(=N)N)C(=O)N[C@@H](CC(C)C)C(=O)N[C@@H](Cc1c[nH]c2ccccc12)C(=O)N[C@@H](CC(C)C)C(=O)N[C@@H](CCCNC(=N)N)C(=O)N[C@@H](CCCCN)C(=O)N[C@@H](C)C(=O)N[C@@H](CCC(=O)O)C(=O)N[C@@H](CCC(=O)O)C(=O)N[C@@H](C)C(=O)N[C@@H](CC(N)=O)C(N)=O [HBS 12]	soluble
CC[C@H](C)[C@H](NC(=O)[C@H](C)N1CC=CCCC(=O)N[C@@H](Cc2ccccc2)C(=O)N[C@@H](CCC(=O)O)C1=O)C(=O)N[C@@H](Cc1ccc(O)cc1)C(=O)N[C@@H](CCCNC(=N)N)C(=O)N[C@@H](CC(C)C)C(=O)N[C@@H](CCC(=O)O)C(=O)N[C@@H](CC(C)C)C(=O)N[C@@H](CC(C)C)C(=O)N[C@@H](CCCCN)C(=O)N[C@@H](C)C(=O)N[C@@H](CCC(=O)O)C(=O)N[C@@H](CCC(=O)O)C(=O)N[C@@H](C)C(=O)N[C@@H](CC(N)=O)C(N)=O [HBS 13]	soluble
Ac-AEGIYRADILRTEEGN-NH2 (N-terminus assumed) [Peptide 4]	partially
CC[C@H](C)[C@H](NC(=O)CN1CC=CCCC(=O)N[C@@H](Cc2ccccc2)C(=O)N[C@@H](CCC(=O)O)C1=O)C(=O)N[C@@H](Cc1ccc(O)cc1)C(=O)N[C@@H](CCCNC(=N)N)C(=O)N[C@@H](CC(C)C)C(=O)N[C@@H](CCC(=O)O)C(=O)N[C@@H](CC(C)C)C(=O)N[C@@H](CC(C)C)C(=O)N[C@@H](CCCCN)C(N)=O [HBS 8]	soluble
Ac-FEGIYRTELLKAEEAN-NH2 (N-terminus assumed) [Peptide 6]	soluble
CC(C)C[C@H](NC(=O)CN1CC=CCCC(=O)N[C@@H](Cc2ccccc2)C(=O)N[C@@H](CCC(=O)O)C1=O)C(=O)N[C@@H](CC(C)C)C(=O)N[C@@H](CCCNC(=N)N)C(=O)N[C@@H](CC(C)C)C(=O)N[C@@H](Cc1c[nH]c2ccccc12)C(=O)N[C@@H](CC(C)C)C(=O)N[C@@H](CCCNC(=N)N)C(=O)N[C@@H](CCCCN)C(=O)NC(C)(C)C(=O)N[C@@H](CCC(=O)O)C(=O)N[C@@H](CCC(=O)O)C(=O)N[C@@H](C)C(=O)N[C@@H](CC(N)=O)C(N)=O [HBS 9]	soluble
CC[C@H](C)[C@H](NC(=O)CN1CC=CCCC(=O)N[C@@H](Cc2ccccc2)C(=O)N[C@@H](CCC(=O)O)C1=O)C(=O)N[C@@H](Cc1ccc(O)cc1)C(=O)N[C@@H](CCCNC(=N)N)C(=O)N[C@H](C(=O)N[C@@H](CC(=O)O)C(=O)N[C@H](C(=O)N[C@@H](CC(C)C)C(=O)N[C@@H](CCCNC(=N)N)C(=O)N[C@H](C(=O)N[C@@H](CCC(=O)O)C(=O)N[C@@H](CCC(=O)O)C(=O)NCC(=O)N[C@@H](CC(N)=O)C(N)=O)[C@@H](C)O)[C@@H](C)CC)[C@@H](C)O [HBS 1]	partially
Ac-FEGIYRTDILRTEEGN-NH2 (N-terminus assumed) [Peptide 1]	partially
CC[C@H](C)[C@H](NC(=O)CN1CC=CCCC(=O)N[C@@H](C)C(=O)N[C@@H](CCC(=O)O)C1=O)C(=O)N[C@@H](Cc1ccc(O)cc1)C(=O)N[C@@H](CCCNC(=N)N)C(=O)N[C@@H](CC(C)C)C(=O)N[C@@H](CCC(=O)O)C(=O)N[C@@H](CC(C)C)C(=O)N[C@@H](CC(C)C)C(=O)N[C@@H](CCCCN)C(=O)N[C@@H](C)C(=O)N[C@@H](CCC(=O)O)C(=O)N[C@@H](C)C(=O)N[C@@H](C)C(=O)N[C@@H](C)C(N)=O [HBS 7^mut]	soluble
Ac-FEGIYRLELLK-NH2 (N-terminus assumed) [Peptide 8]	soluble
Ac-FGEGIYRTDILRTEEGN-NH2 (N-terminus assumed) [Peptide 2]	partially
CC[C@H](C)[C@H](NC(=O)CN1CC=CCCC(=O)N[C@@H](Cc2ccccc2)C(=O)N[C@@H](CCC(=O)O)C1=O)C(=O)N[C@@H](Cc1ccc(O)cc1)C(=O)N[C@@H](CCCNC(=N)N)C(=O)N[C@H](C(=O)N[C@@H](CCC(=O)O)C(=O)N[C@@H](CC(C)C)C(=O)N[C@@H](CC(C)C)C(=O)N[C@@H](CCCCN)C(=O)N[C@@H](C)C(=O)N[C@@H](CCC(=O)O)C(=O)N[C@@H](CCC(=O)O)C(=O)N[C@@H](C)C(=O)N[C@@H](CC(N)=O)C(N)=O)[C@@H](C)O [HBS 6]	soluble
CC[C@H](C)[C@H](NC(=O)CN1CC=CCCC(=O)N[C@@H](Cc2ccccc2)C(=O)N[C@@H](CCC(=O)O)C1=O)C(=O)N[C@@H](Cc1ccc(O)cc1)C(=O)N[C@@H](CCCNC(=N)N)C(=O)N[C@@H](CC(C)C)C(=O)N[C@@H](CCC(=O)O)C(=O)N[C@@H](CC(C)C)C(=O)N[C@@H](CC(C)C)C(=O)N[C@@H](CCCCN)C(=O)N[C@@H](C)C(=O)N[C@@H](CCC(=O)O)C(=O)N[C@@H](CCC(=O)O)C(=O)N[C@@H](C)C(=O)N[C@@H](CC(N)=O)C(N)=O [HBS 7]	soluble
